Data as given in US20230348415A1, “BISPECIFIC ANTAGONISTS OF RETINOL-BINDING PROTEIN 4 THAT STABILIZE TRANSTHYRETIN TETRAMERS, THEIR PREPARATION, AND USE IN THE TREATMENT OF COMMON AGE-RELATED COMORBIDITIES” (The Trustees of Columbia University in the City of New York, priority 2020, published 2023).
“Also recorded” adds a separate entry of the source.

Assays:
serum RBP4 = serum RBP4 (Mus musculus (Mouse), UniProt Q00724); experiment: Serum RBP4 after long-term oral dosing in Abca4−/− mice; format: in vivo; conditions: 25 mg/kg daily in chow
Procedure: FIG. 7. Effect of the long-term oral (±)-44 administration in Abca4^−/− mice on serum RBP4 levels. Serum RBP4 levels were measured in vehicle-treated Abca4^−/− mice (squares) and (±)-44-treated Abca4-mice (triangles) at the indicated time points. […] Error bars show S.D. Each data point on the graph represents a serum RBP4 concentration from an individual animal.
Blood samples were collected from a tail vein. Whole blood was drawn into a centrifuge tube and was allowed to clot at room temperature for 30 minutes followed by centrifugation at 2000 g for 15 minutes at […] to collect serum. Aliquots of plasma samples collected in the mouse pharmacokinetic study were analyzed for the RBP4 concentration using the RBP4 (mouse/rat) dual ELISA kit (AdipoGen, San Diego, CA) following the manufacturer's instructions. In adi-hRBP4 transgenic mouse experiments, blood samples were collected from a tail vein. Whole blood was drawn into a centrifuge tube and was allowed to clot at room temperature for 30 min followed by centrifugation at 2000 g for 15 min at +4° C. to collect serum. Mouse serum RBP4 (produced predominantly in the liver) was measured using the RBP4 (mouse/rat) dual ELISA kit (AdipoGen, San Diego, CA; catalog number AG-45A-0012YTP-KI01)
(±)-44 was formulated into a Picolab 5053 chow to ensure a daily dosing of 25 mg/kg of (±)-44. […]

Abca4−/−/Rdh8−/− mice [1] = experiment: A2E accumulation in eyes of Abca4−/−/Rdh8−/− mice; format: in vivo, mouse; conditions: 25 mg/kg daily in chow, 10 weeks, eyecups, HPLC
Text: FIG. 10. Effect of the long-term oral (±)-44 administration on the level of the lipofuscin fluorophore A2E in eyes of the Abca4^−/−/Rdh8^−/− mice. Bisretinoids were extracted from the eyecups of vehicle-treated wild type mice (circles), vehicle-treated Abca4^−/−/Rdh8^−/− knockout mice (squares), and (±)-44-treated Abca4^−/−/Rdh8^−/− mice (triangles) after 10 weeks of dosing and analyzed by HPLC. A significant 77% reduction in A2E concentration was detected in (±)-44-treated Abca4^−/−/Rdh8^−/− mice compared with vehicle-treated double-knockout controls; one-way ANOVA with Holm-Sidak post hoc test, p<0.0001 (****).
(±)-44 was formulated into a Picolab 5053 chow to ensure a daily dosing of 25 mg/kg of (±)-44. Long-term 10-week dosing of the compound formulated into a chow was conducted in Abca4^−/−/Rdh8^−/− mice. The age-matched control group of wild-type C57BL/6J mice was kept on a standard Picolab 5053 chow. The age-matched reference group of mice was used for defining the basal level of A2E in mice in the absence of the Abca4 and Rdh8 ablation. […] Following the 10 weeks of dosing, the eyecups of treated and untreated Abca4^−/−/Rdh8^−/− mice as well as the eyecups of the reference wild type mice were collected for the quantitative A2E analysis.

Abca4−/−/Rdh8−/− mice [2] = experiment: Photoreceptor preservation (ONL thickness) in Abca4−/−/Rdh8−/− mice; format: in vivo, mouse; conditions: 25 mg/kg daily in chow, 10 weeks
Procedure: FIG. 11. Photoreceptor protection in (±)-44-treated Rdh8^−/−Abca4^−/− mice. […] Data analyzed by two-way ANOVA with Sidak post hoc test.
(±)-44 was formulated into a Picolab 5053 chow to ensure a daily dosing of 25 mg/kg of (±)-44. Long-term 10-week dosing of the compound formulated into a chow was conducted in Abca4^−/−/Rdh8-mice. The age-matched control group of wild-type C57BL/6J mice was kept on a standard Picolab 5053 chow. After 10 weeks of dosing, whole eyes were collected and fixed in the 2% glutaraldehyde/4% paraformaldehyde. Eyes were embedded in paraffin and sectioned at a thickness of 8 μm. Sections were counterstained using hematoxylin and eosin (H&E). Morphologic observations and light microscopy was performed.

Compound: Cc1cc(C(=O)O)nc(N2CCC(COc3ccccc3C(F)(F)F)C2)n1 (racemic) [Compound (±)-44, (±)-6-Methyl-2-(3-((2-(trifluoromethyl)phenoxy)methyl)pyrrolidin-1-yl)pyrimidine-4-carboxylic Acid]
- serum RBP4 reduction compared to untreated Abca4−/− mice (serum RBP4; week 12): 82%
- serum RBP4 reduction compared with baseline (serum RBP4; week 12, Abca4−/− mice): 79%
- reduction in A2E concentration vs vehicle-treated Abca4−/−/Rdh8−/− mice (Abca4−/−/Rdh8−/− mice [1]): 77%
- photoreceptor protection (ONL thickness) (Abca4−/−/Rdh8−/− mice [2]): partially reversed; also recorded: Photoreceptor protection is evident at multiple points in the superior retina
